Measurements published in the supplement of paper PMC10307832.

Tests used:
Test in all cases: relative viability (nuclei count vs DMSO), 5 days (fraction); higher = more cells survive
LU99A = system: LU99A
In short: (§1)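 Relative viability was taken as the ratio of nuclei in treated wells to nuclei in vehicle wells. Lung cancer cell lines in 1536-well plates received compounds by pin tool one day after seeding, either one drug alone or a fixed anchor-drug dose plus five library-drug doses (not always all listed) in √10 steps. Nuclei were counted on 4× images after 5 days of treatment, and values are medians of duplicate plates.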

NCI-H358 = system: NCI-H358
In short: as §1

COR-L 105 = system: COR-L 105
In short: as §1

NCI-H460 = system: NCI-H460
In short: as §1

LXF-289 = system: LXF-289
In short: as §1

NCI-H2342 = system: NCI-H2342
In short: as §1

LCLC-97TM1 = system: LCLC-97TM1
In short: as §1

LC-2-ad = system: LC-2-ad
In short: as §1

HCC-78 = system: HCC-78
In short: as §1

SK-LU-1 = system: SK-LU-1
In short: as §1

A-427 = system: A-427
In short: as §1

SW 900 = system: SW 900
In short: as §1

NCI-H1755 = system: NCI-H1755
In short: as §1

EPLC-272H = system: EPLC-272H
In short: as §1

UMC-11 = system: UMC-11
In short: as §1

HCC-366 = system: HCC-366
In short: as §1

NCI-H1944 = system: NCI-H1944
In short: as §1

HOP-62 = system: HOP-62
In short: as §1

NCI-H1915 = system: NCI-H1915
In short: as §1

NCI-H1975 = system: NCI-H1975
In short: as §1

NCI-H2085 = system: NCI-H2085
In short: as §1

NCI-H2170 = system: NCI-H2170
In short: as §1

NCI-H1793 = system: NCI-H1793
In short: as §1

In the case of `Clc1ccc(Nc2nnc(Cc3ccncc3)c3ccccc23)cc1` [Vatalanib] + Cc1cc(Nc2cc(N3CCN(C)CC3)nc(Sc3ccc(NC(=O)C4CC4)cc3)n2)n[nH]1 [Tozasertib] (partner 0.1 µM), the relative viability (LU99A; first compound 0.04 µM) is reported as 0.282, the relative viability (LU99A; first compound 0.1265 µM) is reported as 0.289 and the relative viability (LU99A; first compound 0.4 µM) is reported as 0.305. For the same compound, the relative viability (LU99A; first compound 1.265 µM) was 0.266, the relative viability (LU99A; first compound 4 µM) was 0.286 and the relative viability (NCI-H358; first compound 0.04 µM) was 0.0969. The relative viability (NCI-H358; first compound 0.1265 µM) was 0.0902, the relative viability (NCI-H358; first compound 0.4 µM) was 0.08 and the relative viability (NCI-H358; first compound 1.265 µM) was 0.108. For the same compound, the relative viability (NCI-H358; first compound 4 µM) was 0.0997, the relative viability (COR-L 105; first compound 0.04 µM) was 0.339 and the relative viability (COR-L 105; first compound 0.1265 µM) was 0.344. It also gave a relative viability (COR-L 105; first compound 0.4 µM) of 0.451, a relative viability (COR-L 105; first compound 1.265 µM) of 0.35 and a relative viability (COR-L 105; first compound 4 µM) of 0.362. It also gave a relative viability (NCI-H460; first compound 0.04 µM) of 0.656, a relative viability (NCI-H460; first compound 0.1265 µM) of 0.299 and a relative viability (NCI-H460; first compound 1.265 µM) of 0.296. The relative viability (NCI-H460; first compound 4 µM) was 0.397, the relative viability (LXF-289; first compound 0.04 µM) was 0.201 and the relative viability (LXF-289; first compound 0.1265 µM) was 0.168. The relative viability (LXF-289; first compound 0.4 µM) was 0.229, the relative viability (LXF-289; first compound 1.265 µM) was 0.192 and the relative viability (LXF-289; first compound 4 µM) was 0.212. For the same compound, the relative viability (NCI-H2342; first compound 0.04 µM) was 0.618, the relative viability (NCI-H2342; first compound 0.1265 µM) was 0.532 and the relative viability (NCI-H2342; first compound 0.4 µM) was 0.492. It also gave a relative viability (NCI-H2342; first compound 1.265 µM) of 0.465, a relative viability (NCI-H2342; first compound 4 µM) of 0.492 and a relative viability (LCLC-97TM1; first compound 0.04 µM) of 0.301. For the same compound, the relative viability (LCLC-97TM1; first compound 0.1265 µM) was 0.196, the relative viability (LCLC-97TM1; first compound 0.4 µM) was 0.237 and the relative viability (LCLC-97TM1; first compound 1.265 µM) was 0.21. The relative viability (LCLC-97TM1; first compound 4 µM) was 0.263, the relative viability (LC-2-ad; first compound 0.04 µM) was 0.53 and the relative viability (LC-2-ad; first compound 0.1265 µM) was 0.385. It also gave a relative viability (LC-2-ad; first compound 1.265 µM) of 0.469, a relative viability (LC-2-ad; first compound 4 µM) of 0.425 and a relative viability (HCC-78; first compound 0.04 µM) of 0.447. The relative viability (HCC-78; first compound 0.1265 µM) was 0.494, the relative viability (HCC-78; first compound 0.4 µM) was 0.559 and the relative viability (HCC-78; first compound 1.265 µM) was 0.436. The relative viability (HCC-78; first compound 4 µM) was 0.493, the relative viability (SK-LU-1; first compound 0.04 µM) was 0.374 and the relative viability (SK-LU-1; first compound 0.1265 µM) was 0.33. It also gave a relative viability (SK-LU-1; first compound 0.4 µM) of 0.404, a relative viability (SK-LU-1; first compound 1.265 µM) of 0.349 and a relative viability (SK-LU-1; first compound 4 µM) of 0.322. It also gave a relative viability (A-427; first compound 0.04 µM) of 0.224, a relative viability (A-427; first compound 0.1265 µM) of 0.21 and a relative viability (A-427; first compound 0.4 µM) of 0.232. The relative viability (A-427; first compound 1.265 µM) was 0.206, the relative viability (A-427; first compound 4 µM) was 0.2 and the relative viability (SW 900; first compound 0.1265 µM) was 0.563. It also gave a relative viability (SW 900; first compound 0.4 µM) of 0.68, a relative viability (SW 900; first compound 1.265 µM) of 0.482 and a relative viability (SW 900; first compound 4 µM) of 0.572. For the same compound, the relative viability (NCI-H1755; first compound 0.04 µM) was 0.587, the relative viability (NCI-H1755; first compound 0.1265 µM) was 0.612 and the relative viability (NCI-H1755; first compound 0.4 µM) was 0.701. The relative viability (NCI-H1755; first compound 1.265 µM) was 0.58, the relative viability (NCI-H1755; first compound 4 µM) was 0.628 and the relative viability (EPLC-272H; first compound 0.04 µM) was 0.319. The relative viability (EPLC-272H; first compound 0.1265 µM) was 0.271, the relative viability (EPLC-272H; first compound 0.4 µM) was 0.411 and the relative viability (EPLC-272H; first compound 1.265 µM) was 0.324. The relative viability (EPLC-272H; first compound 4 µM) was 0.249, the relative viability (UMC-11; first compound 0.04 µM) was 0.198 and the relative viability (UMC-11; first compound 0.1265 µM) was 0.206. For the same compound, the relative viability (UMC-11; first compound 0.4 µM) was 0.147, the relative viability (UMC-11; first compound 1.265 µM) was 0.214 and the relative viability (UMC-11; first compound 4 µM) was 0.205. The relative viability (HCC-366; first compound 0.04 µM) was 0.119, the relative viability (HCC-366; first compound 0.1265 µM) was 0.0909 and the relative viability (HCC-366; first compound 0.4 µM) was 0.161. For the same compound, the relative viability (HCC-366; first compound 1.265 µM) was 0.103, the relative viability (HCC-366; first compound 4 µM) was 0.095 and the relative viability (NCI-H1944; first compound 0.04 µM) was 0.267. It also gave a relative viability (NCI-H1944; first compound 0.1265 µM) of 0.247, a relative viability (NCI-H1944; first compound 0.4 µM) of 0.262 and a relative viability (NCI-H1944; first compound 1.265 µM) of 0.266. The relative viability (NCI-H1944; first compound 4 µM) was 0.235, the relative viability (HOP-62; first compound 0.04 µM) was 0.401 and the relative viability (HOP-62; first compound 0.1265 µM) was 0.335. For the same compound, the relative viability (HOP-62; first compound 0.4 µM) was 0.396, the relative viability (HOP-62; first compound 1.265 µM) was 0.336 and the relative viability (HOP-62; first compound 4 µM) was 0.405. For the same compound, the relative viability (NCI-H1915; first compound 0.04 µM) was 0.457, the relative viability (NCI-H1915; first compound 0.1265 µM) was 0.413 and the relative viability (NCI-H1915; first compound 0.4 µM) was 0.468. It also gave a relative viability (NCI-H1915; first compound 1.265 µM) of 0.385, a relative viability (NCI-H1915; first compound 4 µM) of 0.442 and a relative viability (NCI-H1975; first compound 0.04 µM) of 0.835. The relative viability (NCI-H1975; first compound 0.1265 µM) was 0.687, the relative viability (NCI-H1975; first compound 0.4 µM) was 0.726 and the relative viability (NCI-H1975; first compound 1.265 µM) was 0.535. The relative viability (NCI-H1975; first compound 4 µM) was 0.424, the relative viability (NCI-H2085; first compound 0.04 µM) was 0.796 and the relative viability (NCI-H2085; first compound 0.1265 µM) was 0.831. It also gave a relative viability (NCI-H2085; first compound 0.4 µM) of 0.829, a relative viability (NCI-H2085; first compound 1.265 µM) of 0.744 and a relative viability (NCI-H2085; first compound 4 µM) of 0.637. It also gave a relative viability (NCI-H2170; first compound 0.04 µM) of 0.768, a relative viability (NCI-H2170; first compound 0.1265 µM) of 0.706 and a relative viability (NCI-H2170; first compound 0.4 µM) of 0.796. It also gave a relative viability (NCI-H2170; first compound 1.265 µM) of 0.677, a relative viability (NCI-H2170; first compound 4 µM) of 0.777 and a relative viability (NCI-H1793; first compound 0.04 µM) of 0.342. It also gave a relative viability (NCI-H1793; first compound 0.1265 µM) of 0.341, a relative viability (NCI-H1793; first compound 0.4 µM) of 0.364 and a relative viability (NCI-H1793; first compound 1.265 µM) of 0.276. The relative viability (NCI-H1793; first compound 4 µM) was 0.329.
